Measurements reported in article PMC5946847, “Synthesis and biological evaluation of aryl-oxadiazoles as inhibitors of Mycobacterium tuberculosis” (Bioorganic & Medicinal Chemistry Letters, 2018).
In brackets after ≈: the same amount, converted by molar mass.

Tests used:
[1] = Mouse microsomal stability; assay type: in vitro ADME; details: mouse, microsomes; for Mouse microsome (% metabolized in 30 min): 0.5 h, 2 μM
Description: 4. Method for microsomal stability:
To determine microsomal turnover, test compounds were incubated (2 μM) with liver microsomes in the presence of NADPH, and loss of parent molecule was measured by LC-MS after 30 min.

[2] = Mouse pharmacokinetic studies (intravenous and oral); assay type: in vivo; details: for AUC0–24: 24 h
Description: 5. Method for PK studies:
In Vivo Pharmacokinetic Studies. Compounds 1, 2 and 3 were administered intravenously at 1 mg/kg (1 ml/kg) in Dimethyl acetamide 25%v/v, ethanol 15%v/v, propylene glycol 10%v/v, 2 pyrrolidone 25%v/v, PW 25%v/v in fed animal, or orally at 10 mg/kg (10 ml/kg) in Hydroxyethylcellulose 1% w/v/polysorbate 80 0.25% v/v/Antifoam 1510-US 0.05% v/v/PW (probe sonicate), in fasted animals, respectively. Additional study was conducted for compound 2 wherein the animals were dosed 1-aminobenzotriazole (100 mpk) intraperitoneally one hour prior to dosing compound 2 either intravenously (fed animals) at 1 mg/kg or orally (fasted animals) at 10 mg/kg. Three animals were dosed per study arm.
Serial blood samples were collected at 0.08, 0.25, 0.75, 2, 4, 8, 24 for intravenous and 0.25, 0.5, 1, 2, 4, 8, 24 for oral administration. The blood was collected via a tail snip directly into a 20-μL EDTA-coated capillary and immediately spotted onto a Whatman DMPK-C dried blood sample (DBS) card and analysed using LC-MS/MS, as described previously.^7 Noncompartmental pharmacokinetic parameters were calculated using Watson version 7.4 (Thermo Scientific, Waltham, MA).

in vitro = in vitro ADME; details: mouse, plasma
Description: Fraction unbound in mouse plasma:^8

SMILES	CLint scaled at 2 μM [1]	Mouse microsome (% metabolized in 30 min) [1]	AUC,u0–24 ([2]; in vivo, iv, 1 mg/kg)	CL,u ([2]; in vivo, iv, 1 mg/kg)	Cl ([2]; in vivo, iv, 1 mg/kg)	Vdss ([2]; in vivo, iv, 1 mg/kg)	Cmax ([2]; in vivo, po, 10 mg/kg)	Cmax,u ([2]; in vivo, po, 10 mg/kg)	Tmax ([2]; in vivo, po, 10 mg/kg)	t1/2 ([2]; intravenous 1 mg/kg)	fraction unbound at 4.5 h, 1 µM (in vitro)	solubility (physchem; pH 7.4)	AUC(0-t) at 24 h ([2]; in vivo, po, 10 mg/kg, AUC0–24)	further results
CN(Cc1nnc(-c2ccco2)o1)Cc1c(F)cccc1Cl [Compound 2]	1350 mL/min/kg	99%	37 ng·h/mL	455 mL/min/kg	56 mL/min/kg	1.1 L/kg	31 ng/mL	3.8 ng/mL	0.25 h	0.3 h	0.123	77 µg/mL (≈ 239 µM)		AUC0–24 ([2]; in vivo, iv, 1 mg/kg): 300 ng·h/mL; Increase of oral exposure when co-administered with ABT ([2]; in vivo, po, 10 mg/kg): > 10 fold; AUC0–24 ([2]; in vivo, po, 10 mg/kg): 48 ng·h/mL; half-life ([2]; whole blood, intravenous 1 mg/kg, co-administered with ABT (100 mg/kg, 1 h pre-dose)): 1.7 h; solubility (physchem; pH 6): 49 µg/mL (≈ 152 µM)
c1csc(-c2nnc(Cc3cccc4ccccc34)o2)c1 [Compound 1]	3310 mL/min/kg	99%	32 ng·h/mL	1727 mL/min/kg	19 mL/min/kg	0.9 L/kg	19 ng/mL	0.2 ng/mL	2.75 h	1.2 h	0.011	< 1 µg/mL	31 ng·h/mL	AUC(0-t) ([2]; in vivo, iv, 1 mg/kg, AUC0–24): 2900 ng·h/mL
CN(Cc1nnc(-c2ccco2)o1)Cc1c(F)cccc1Cl.O=C(O)/C=C\C(=O)O [Compound 2 maleate salt]														Aqueous solubility at pH 6 (pH 6): 0.687 mg/mL; Aqueous solubility at pH 7.4 (pH 7.4): 0.717 mg/mL
CC1CCc2ccccc2N1Cc1nc(-c2ccsc2)no1 (centres unmarked) [Compound 3]	1910 mL/min/kg	65%	6 ng·h/mL	2733 mL/min/kg	41 mL/min/kg	6.3 L/kg	9 ng/mL	0.1 ng/mL	0.25 h	2.9 h		5 µg/mL (≈ 16.1 µM)	10 ng·h/mL	AUC(0-t) at 24 h ([2]; in vivo, iv, 1 mg/kg, AUC0–24): 430 ng·h/mL; fraction unbound (in vitro): < 0.015
